Data taken from patent US9963464B2, “Macrocyclic compounds” (Bayer Pharma Aktiengesellschaft, priority 2014, dated 2018).
Like-named read-outs stand apart in the source and are kept apart here.

Key:
CDK9/CycT1 = target: T1, CDK9/CycT1 (Homo sapiens, UniProt P50750); test: CDK9/CycT1 high ATP kinase assay (TR-FRET, Method 1b); format: biochemical; conditions: for IC50: Method 1b, 2 mM ATP; for Selectivity high ATP CDK9 over high ATP CDK2: IC50 (high ATP CDK2)/IC50 (high ATP CDK9): Methods 1b and 2b, minimal values where CDK9 IC50 is at the assay limit
T1 construct: Recombinant full-length His-tagged human CDK9 and CycT1; His; purchased Invitrogen PV4131; host or cells: insect cells
Procedure: 1b. CDK9/CycT1 High ATP Kinase Assay
CDK9/CycT1-inhibitory activity of compounds of the present invention at a high ATP concentration after preincubation of enzyme and test compounds was quantified employing the CDK9/CycT1 TR-FRET assay as described in the following paragraphs.
Recombinant full-length His-tagged human CDK9 and CycT1, expressed in insect cells and purified by Ni-NTA affinity chromatography, were purchase from Invitrogen (Cat. No PV4131). As substrate for the kinase reaction biotinylated peptide biotin-Ttds-YISPLKSPYKISEG (C-terminus in amid form) was used which can be purchased e.g. from the company JERINI peptide technologies (Berlin, Germany). For the assay 50 nl of a 100 fold concentrated solution of the test compound in DMSO was pipetted into a black low volume 384 well microtiter plate (Greiner Bio-One, Frickenhausen, Germany), 2 μl of a solution of CDK9/CycT1 in aqueous assay buffer [50 mM Tris/HCl pH 8.0, 10 mM MgCl2, 1.0 mM dithiothreitol, 0.1 mM sodium ortho-vanadate, 0.01% (v/v) Nonidet-P40 (Sigma)] were added and the mixture was incubated for 15 min at 22° C. to allow pre-binding of the test compounds to the enzyme before the start of the kinase reaction. […] The concentration of CDK9/CycT1 was adjusted depending of the activity of the enzyme lot and was chosen appropriate to have the assay in the linear range, typical concentrations were in the range of 0.5 μg/mL. The reaction was stopped by the addition of 5 μl of a solution of TR-FRET detection reagents (0.2 μM streptavidine-XL665 [Cisbio Bioassays, Codolet, France] and 1 nM anti-RB(pSer807/pSer811)-antibody from BD Pharmingen [#558389] and 1.2 nM LANCE EU-W1024 labeled anti-mouse IgG antibody [Perkin-Elmer, product no. AD0077]) in an aqueous EDTA-solution (100 mM EDTA, 0.2% (w/v) bovine serum albumin in 100 mM HEPES pH 7.5).
The resulting mixture was incubated 1 h at 22° C. to allow the formation of complex between the phosphorylated biotinylated peptide and the detection reagents. Subsequently the amount of phosphorylated substrate was evaluated by measurement of the resonance energy transfer from the Eu-chelate to the streptavidine-XL. Therefore, the fluorescence emissions at 620 nm and 665 nm after excitation at 350 nm was measured in a HTRF reader, e.g. a Rubystar (BMG Labtechnologies, Offenburg, Germany) or a Viewlux (Perkin-Elmer). The ratio of the emissions at 665 nm and at […] was taken as the measure for the amount of phosphorylated substrate. The data were normalised (enzyme reaction without inhibitor=0% inhibition, all other assay components but no enzyme=100% inhibition).

B16F10 cells = test: Proliferation assay B16F10; format: cell-based, mouse; conditions: 4 days, crystal violet, read-out: Inhibition of B16F10 cell proliferation IC50
Procedure: Cultivated tumour cells (HeLa, human cervical tumour cells, ATCC CCL-2; NCI-H460, human non-small cell lung carcinoma cells, ATCC HTB-177; A2780, human ovarian carcinoma cells, ECACC #93112519; DU 145, hormone-independent human prostate carcinoma cells, ATCC HTB-81; HeLa-MaTu-ADR, multidrug-resistant human cervical carcinoma cells, EPO-GmbH Berlin; Caco-2, human colorectal carcinoma cells, ATCC HTB-37; B16F10, mouse melanoma cells, ATCC CRL-6475) were plated at a density of 5,000 cells/well (DU145, HeLa-MaTu-ADR), 3,000 cells/well (NCI-H460, HeLa), 2,500 cells/well (A2780), 1,500 cells/well (Caco-2), or 1,000 cells/well (B16F10) in a 96-well multititer plate in 200 μL of their respective growth medium supplemented 10% fetal calf serum. After 24 hours, the cells of one plate (zero-point plate) were stained with crystal violet (see below), while the medium of the other plates was replaced by fresh culture medium (200 μl), to which the test substances were added in various concentrations (0 μM, as well as in the range of 0.001-10 μM). The cells were incubated for 4 days in the presence of test substances. Cell proliferation was determined by staining the cells with crystal violet: the cells were fixed by adding 20 μl/measuring point of an 11% glutaric aldehyde solution for 15 minutes at room temperature. After three washing cycles of the fixed cells with water, the plates were dried at room temperature. The cells were stained by adding 100 μl/measuring point of a 0.1% crystal violet solution (pH 3.0). After three washing cycles of the stained cells with water, the plates were dried at room temperature. The dye was dissolved by adding 100 μl/measuring point of a 10% acetic acid solution. The extinction was determined by photometry at a wavelength of 595 nm. The change of cell number, in percent, was calculated by normalization of the measured values to the extinction values of the zero-point plate (=0%) and the extinction of the untreated (0 μm) cells (=100%). The IC50 values (inhibitory concentration at 50% of maximal effect) were determined by means of a 4 parameter fit. Non-adherent MOLM-13 human acute myeloid leukemia cells (DSMZ ACC 554) were seeded at a density of 5,000 cells/well in a 96-well multititer plate in 100 μL of growth medium supplemented 10% fetal calf serum. After 24 hours, cell viability of one plate (zero-point plate) was determined with the Cell Titre-Glo Luminescent Cell Viability Assay (Promega), while 50 μL of test compound containing medium was added to the wells of the other plates (final concentrations in the range of 0.001-1 μM and DMSO controls). Cell viability was assessed after 72-hour exposure with the Cell Titre-Glo Luminescent Cell Viability Assay (Promega). IC50 values (inhibitory concentration at 50% of maximal effect) were determined by means of a 4 parameter fit on measurement data which were normalized to vehicle (DMSO) treated cells (=100%) and measurement readings taken immediately before compound exposure (=0%).

T1 sequence (P50750 whole entry): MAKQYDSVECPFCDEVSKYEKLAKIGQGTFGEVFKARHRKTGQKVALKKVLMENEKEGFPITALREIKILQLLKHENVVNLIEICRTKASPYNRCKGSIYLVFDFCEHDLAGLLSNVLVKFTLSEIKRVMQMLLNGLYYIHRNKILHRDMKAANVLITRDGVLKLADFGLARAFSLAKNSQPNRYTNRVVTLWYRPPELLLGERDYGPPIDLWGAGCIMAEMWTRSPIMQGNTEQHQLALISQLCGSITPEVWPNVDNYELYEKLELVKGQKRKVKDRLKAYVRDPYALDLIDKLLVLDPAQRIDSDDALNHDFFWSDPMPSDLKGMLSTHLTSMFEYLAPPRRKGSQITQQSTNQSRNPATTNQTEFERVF
T1 sequence (O60563 whole entry partner): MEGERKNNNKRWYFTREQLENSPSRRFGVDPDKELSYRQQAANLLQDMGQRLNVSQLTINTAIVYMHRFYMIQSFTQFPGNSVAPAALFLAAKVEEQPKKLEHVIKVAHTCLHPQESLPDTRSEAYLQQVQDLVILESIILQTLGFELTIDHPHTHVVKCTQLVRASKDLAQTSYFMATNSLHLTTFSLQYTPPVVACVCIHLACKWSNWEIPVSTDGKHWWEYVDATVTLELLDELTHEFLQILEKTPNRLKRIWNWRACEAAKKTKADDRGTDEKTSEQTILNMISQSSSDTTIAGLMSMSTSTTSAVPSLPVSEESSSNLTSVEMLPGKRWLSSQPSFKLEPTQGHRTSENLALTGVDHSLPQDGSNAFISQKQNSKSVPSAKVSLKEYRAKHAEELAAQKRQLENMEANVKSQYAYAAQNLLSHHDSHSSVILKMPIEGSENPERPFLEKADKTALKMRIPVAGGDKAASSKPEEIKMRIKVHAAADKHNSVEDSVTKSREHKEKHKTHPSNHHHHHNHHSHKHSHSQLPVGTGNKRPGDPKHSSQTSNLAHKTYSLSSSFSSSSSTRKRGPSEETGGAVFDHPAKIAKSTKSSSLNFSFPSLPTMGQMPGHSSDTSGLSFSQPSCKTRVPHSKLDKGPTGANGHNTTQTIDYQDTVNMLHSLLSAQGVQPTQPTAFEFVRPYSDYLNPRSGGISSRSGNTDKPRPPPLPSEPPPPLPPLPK

| SMILES | IC50 (CDK9/CycT1) [nM] | Selectivity high ATP CDK9 over high ATP CDK2: IC50 (high ATP CDK2)/IC50 (high ATP CDK9) (CDK9/CycT1) | IC50 (B16F10 cells; Mus musculus, B16-F10, 96 h) [nM] | IC50 (B16F10 cells) [nM] |
| --- | --- | --- | --- | --- |
| CS(=N)(=O)Cc1cc2nc(c1)OCCCOc1cc(F)ccc1-c1cc(ncc1F)N2 (racemic) [Example 5, (rac)-15,19-Difluoro-8-[(S-methylsulfonimidoyl)methyl]-3,4-dihydro-2H,11H-10,6-(azeno)-12,16-(metheno)-1,5,11,13-benzodioxadiazacyclooctadecine] | 0.98 | 20.8 | 4 |  |
| CS(=N)(=O)Cc1cc2nc(c1)OCCCCOc1cc(F)ccc1-c1cc(ncc1F)N2 (racemic) [Example 14, (rac)-16,20-difluoro-9-[(S-methylsulfonimidoyl)methyl]-2,3,4,5-tetrahydro-12H-11,7-(azeno)-13,17-(metheno)-1,6,12,14-benzodioxadiazacyclononadecine] | 3.6 | 45.3 | 22 |  |
| CSCc1cc2nc(c1)OCCCCOc1cc(F)ccc1-c1cc(ncc1F)N2 [Example 12, 16,20-Difluoro-9-[(methylsulfanyl)methyl]-2,3,4,5-tetrahydro-12H-11,7-(azeno)-13,17-(metheno)-1,6,12,14-benzodioxadiazacyclononadecine] | 11.8 | 75.7 | 343 |  |
| CS(=N)(=O)Cc1cc2nc(c1)OCCCOc1cc(F)ccc1-c1cc(ncc1F)N2 (single isomer, unassigned; enantiomer 2) [Example 7, 15,19-Difluoro-8-[(S-methylsulfonimidoyl)methyl]-3,4-dihydro-2H,11H-10,6-(azeno)-12,16-(metheno)-1,5,11,13-benzodioxadiazacyclooctadecine; Enantiomer 2] | 2.6 | 19.5 |  | 7 |
| CSCc1cc2cc(c1)OCCCOc1cc(F)ccc1-c1nc(ncc1F)N2 [Example 2, 15,19-Difluoro-8-[(methylsulfanyl)methyl]-3,4-dihydro-2H,11H-12,16-(azeno)-10,6-(metheno)-1,5,11,13-benzodioxadiazacyclooctadecine] | 4.3 | 149.6 | 167 |  |
| C[S+]([O-])Cc1cc2nc(c1)OCCCOc1cc(F)ccc1-c1cc(ncc1F)N2 (racemic) [Example 4, (rac)-15,19-Difluoro-8-[(methylsulfinyl)methyl]-3,4-dihydro-2H,11H-10,6-(azeno)-12,16-(metheno)-1,5,11,13-benzodioxadiazacyclooctadecine] | 1.6 | 19.6 | 14 |  |

Further compounds by falling IC50 (CDK9/CycT1), results first:

| IC50 (CDK9/CycT1) [nM] | Selectivity high ATP CDK9 over high ATP CDK2: IC50 (high ATP CDK2)/IC50 (high ATP CDK9) (CDK9/CycT1) | IC50 (B16F10 cells; Mus musculus, B16-F10, 96 h) [nM] | IC50 (B16F10 cells) [nM] | SMILES |
| --- | --- | --- | --- | --- |
| 27.8 | 125.7 | 410 |  | C[S+]([O-])Cc1cc2nc(c1)OCCOc1cc(F)ccc1-c1cc(ncc1F)N2 (racemic) [Example 10, (rac)-14,18-difluoro-7-[(methylsulfinyl)methyl]-2,3-dihydro-10H-9,5-(azeno)-11,15-(metheno)-1,4,10,12-benzodioxadiazacycloheptadecine] |
| 4.6 | 28.2 | 81 |  | CSCc1cc2nc(c1)OCCCOc1cc(F)ccc1-c1cc(ncc1F)N2 [Example 3, 15,19-Difluoro-8-[(methylsulfanyl)methyl]-3,4-dihydro-2H,11H-10,6-(azeno)-12,16-(metheno)-1,5,11,13-benzodioxadiazacyclooctadecine] |
| 3.9 | 172 | 18 |  | CS(=O)(Cc1cc2cc(c1)OCCCOc1cc(F)ccc1-c1nc(ncc1F)N2)=NC(=O)C(F)(F)F (racemic) [Example 16, (rac)-N-[{[15,19-difluoro-3,4-dihydro-2H,11H-12,16-(azeno)-10,6-(metheno)-1,5,11,13-benzodioxadiazacyclooctadecin-8-yl]methyl}(methyl)oxido-λ^6-sulfanylidene]-2,2,2-trifluoroacetamide] |
| 3 | 702 | 200 |  | CS(=N)(=O)Cc1cc2nc(c1)OCCOc1cc(F)ccc1-c1cc(ncc1F)N2 (racemic) [Example 11, (rac)-14,18-difluoro-7-[(S-methylsulfonimidoyl)methyl]-2,3-dihydro-10H-9,5-(azeno)-11,15-(metheno)-1,4,10,12-benzodioxadiazacycloheptadecine] |
| 2.3 | 14.9 | 9 |  | CS(=O)(=O)Cc1cc2nc(c1)OCCCOc1cc(F)ccc1-c1cc(ncc1F)N2 [Example 8, 15,19-difluoro-8-[(methylsulfonyl)methyl]-3,4-dihydro-2H,11H-10,6-(azeno)-12,16-(metheno)-1,5,11,13-benzodioxadiazacyclooctadecine] |
| 1.7 | 125.3 | 14 |  | CS(=N)(=O)Cc1cc2cc(c1)OCCCCOc1cc(F)ccc1-c1nc(ncc1F)N2 (racemic) [Example 1, (rac)-16,20-Difluoro-9-[(S-methylsulfonimidoyl)methyl]-2,3,4,5-tetrahydro-12H-13,17-(azeno)-11,7-(metheno)-1,6,12,14-benzodioxadiazacyclononadecine] |
| 1.1 | 35.4 | 7 |  | CS(=N)(=O)Cc1cc2nc(c1)OCCCOc1cc(F)ccc1-c1cc(ncc1F)N2 (single isomer, unassigned; enantiomer 1) [Example 6, 15,19-Difluoro-8-[(S-methylsulfonimidoyl)methyl]-3,4-dihydro-2H,11H-10,6-(azeno)-12,16-(metheno)-1,5,11,13-benzodioxadiazacyclooctadecine; Enantiomer 1] |
